# Assay results reported in the supplement of paper PMC10307832.
# Compound: Cc1nc(NC(=O)N2CCC[C@H]2C(N)=O)sc1-c1ccnc(C(C)(C)C(F)(F)F)c1 [Alpelisib] + CC1(C)CCC(c2ccc(Cl)cc2)=C(CN2CCN(c3ccc(C(=O)NS(=O)(=O)c4ccc(N[C@H](CCN5CCOCC5)CSc5ccccc5)c(S(=O)(=O)C(F)(F)F)c4)cc3)CC2)C1 [Navitoclax] (partner 0.5 µM)
# Assay: relative viability (nuclei count vs DMSO), 5 days (fraction); higher = more cells survive
# Conditions: first compound 0.04 µM
# Procedure, shortened: (§1)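 Lung cancer cell lines, seeded in 1536-well plates, were treated the following day by pin tool with a single drug or with five library-drug doses (not always all listed) in √10 steps on top of a fixed anchor-drug dose. Cells were fixed and nuclei stained in one step after 5 days, and nuclei were counted. Relative viability is the nuclei count for treated wells divided by that for vehicle wells, reported as medians of duplicate plates.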
row,Cell Line,relative viability
1,CAL-12T,1.35
2,LCLC-97TM1,0.411
3,NCI-H23,0.708
4,HCC-827,1
5,NCI-H2347,0.919
6,LXF-289,0.91
7,NCI-H1666,0.95
8,RERF-LC-KJ,0.768
9,NCI-H322M,0.908

# Same assay, conditions: first compound 0.1265 µM
row,Cell Line,relative viability
1,LK-2,0.72
2,NCI-H2405,0.894
3,NCI-H1703,0.994
4,NCI-H1993,0.879
5,NCI-H1355,1.02
6,HCC-366,1.08
7,NCI-H1915,0.829
8,NCI-H838,1.08
9,A-427,0.884
10,EKVX,0.903
11,NCI-H2087,1.09
12,NCI-H1734,0.758
13,LU99A,0.716
14,NCI-H460,1.25
15,NCI-H2170,0.638
16,HCC-15,0.7
17,NCI-H1944,1.13

row,Cell Line,relative viability
1,EMC-BAC-2,1.08
2,NCI-H1395,1.12
3,LC-2-ad,0.394
4,NCI-H2085,1.06
5,NCI-H727,0.303
6,NCI-H647,1.03
7,HARA,1.17
8,NCI-H3122,0.982
9,CAL-12T,1.29
10,LCLC-97TM1,0.371
11,NCI-H23,0.856
12,HCC-827,1.02
13,NCI-H2347,0.745
14,LXF-289,0.972
15,NCI-H1666,0.677
16,RERF-LC-KJ,0.931
17,NCI-H322M,1.07

# Same assay, conditions: first compound 0.4 µM
row,Cell Line,relative viability
1,LK-2,0.697
2,NCI-H2405,0.798
3,NCI-H1703,0.71
4,NCI-H1993,0.874
5,NCI-H1355,1.07
6,HCC-366,1.05
7,NCI-H1915,0.82
8,NCI-H838,1.15
9,A-427,0.997
10,EKVX,1.12
11,NCI-H2087,1.1
12,NCI-H1734,0.794
13,LU99A,0.773
14,NCI-H460,1.08
15,NCI-H2170,0.52
16,HCC-15,0.74
17,NCI-H1944,1.09

row,Cell Line,relative viability
1,EMC-BAC-2,1.17
2,NCI-H1395,1.45
3,LC-2-ad,0.364
4,NCI-H2085,1.14
5,NCI-H727,0.411
6,NCI-H647,1.22
7,HARA,1.16
8,NCI-H3122,1.02
9,CAL-12T,1.22
10,LCLC-97TM1,0.33
11,NCI-H23,0.851
12,HCC-827,1.06
13,NCI-H2347,0.868
14,LXF-289,0.968
15,NCI-H1666,0.937
16,RERF-LC-KJ,0.935
17,NCI-H322M,1.29

# Same assay, conditions: first compound 1.265 µM
row,Cell Line,relative viability
1,LK-2,0.374
2,NCI-H2405,0.596
3,NCI-H1703,0.565
4,NCI-H1993,0.659
5,NCI-H1355,0.927
6,HCC-366,0.681
7,NCI-H1915,0.764
8,NCI-H838,1.04
9,A-427,0.874
10,EKVX,0.84
11,NCI-H2087,0.767
12,NCI-H1734,0.714
13,LU99A,0.546
14,NCI-H460,0.701
15,NCI-H2170,0.316
16,HCC-15,0.598
17,NCI-H1944,0.824

row,Cell Line,relative viability
1,EMC-BAC-2,0.956
2,NCI-H1395,0.984
3,LC-2-ad,0.332
4,NCI-H2085,0.914
5,NCI-H727,0.244
6,NCI-H647,0.83
7,HARA,1.2
8,NCI-H3122,0.906
9,CAL-12T,1.16
10,LCLC-97TM1,0.206
11,NCI-H23,0.532
12,HCC-827,1.01
13,NCI-H2347,0.665
14,LXF-289,0.917
15,NCI-H1666,0.762
16,RERF-LC-KJ,0.626
17,NCI-H322M,0.941

# Same assay, conditions: first compound 4 µM
row,Cell Line,relative viability
1,LK-2,0.507
2,NCI-H2405,0.789
3,NCI-H1703,0.464
4,NCI-H1993,0.702
5,NCI-H1355,0.84
6,HCC-366,0.334
7,NCI-H1915,0.504
8,NCI-H838,1.01
9,A-427,0.884
10,EKVX,0.75
11,NCI-H2087,0.991
12,NCI-H1734,0.47
13,LU99A,0.426
14,NCI-H460,0.299
15,NCI-H2170,0.308
16,HCC-15,0.454
17,NCI-H1944,0.617

row,Cell Line,relative viability
1,EMC-BAC-2,0.879
2,NCI-H1395,0.927
3,LC-2-ad,0.285
4,NCI-H2085,1.11
5,NCI-H727,0.137
6,NCI-H647,0.948
7,HARA,0.575
8,NCI-H3122,0.81
9,CAL-12T,1.47
10,LCLC-97TM1,0.142
11,NCI-H23,0.535
12,HCC-827,0.908
13,NCI-H2347,0.605
14,LXF-289,0.939
15,NCI-H1666,0.689
16,RERF-LC-KJ,0.741
17,NCI-H322M,0.936

# Compound: COc1cccc2cc(-c3nc([C@H]4CC[C@H](C(=O)O)CC4)n4ncnc(N)c34)[nH]c12 [OSI-027] + COc1cc2c(Oc3ccc(NC(=O)C4(C(=O)Nc5ccc(F)cc5)CC4)cc3F)ccnc2cc1OCCCN1CCOCC1 [Foretinib] (partner 0.25 µM)
# Assay: as above
# Conditions: first compound 0.01 µM
# Procedure, shortened: as §1
row,Cell Line,relative viability
1,LK-2,1.13
2,NCI-H2405,1.02
3,NCI-H1703,0.324
4,NCI-H1993,0.749
5,NCI-H1355,1.01
6,HCC-366,0.98
7,NCI-H1915,1.23
8,NCI-H838,1.04
9,A-427,0.952
10,EKVX,0.707
11,NCI-H2087,1.11
12,NCI-H1734,0.87
13,LU99A,0.75
14,NCI-H460,1.06
15,NCI-H2170,1.1
16,HCC-15,1.11
17,NCI-H1944,0.835

row,Cell Line,relative viability
1,EMC-BAC-2,0.898
2,NCI-H1395,0.965
3,LC-2-ad,0.826
4,NCI-H2085,1.09
5,NCI-H727,0.601
6,NCI-H647,1.39
7,HARA,0.91
8,NCI-H3122,1.02
9,CAL-12T,1.16
10,LCLC-97TM1,0.969
11,NCI-H23,0.908
12,HCC-827,1.19
13,NCI-H2347,0.914
14,LXF-289,0.956
15,NCI-H1666,1
16,RERF-LC-KJ,0.869
17,NCI-H322M,0.942

# Same assay, conditions: first compound 0.03162 µM
row,Cell Line,relative viability
1,LK-2,1.2
2,NCI-H2405,0.968
3,NCI-H1703,0.336
4,NCI-H1993,0.633
5,NCI-H1355,0.784
6,HCC-366,1.05
7,NCI-H1915,1.14
8,NCI-H838,0.827
9,A-427,1
10,EKVX,0.764
11,NCI-H2087,1.1
12,NCI-H1734,0.92
13,LU99A,0.763
14,NCI-H460,0.762
15,NCI-H2170,0.962
16,HCC-15,0.954
17,NCI-H1944,0.918

row,Cell Line,relative viability
1,EMC-BAC-2,0.972
2,NCI-H1395,0.903
3,LC-2-ad,0.899
4,NCI-H2085,1.01
5,NCI-H727,1.03
6,NCI-H647,1.14
7,HARA,0.92
8,NCI-H3122,0.998
9,CAL-12T,1.22
10,LCLC-97TM1,0.927
11,NCI-H23,0.937
12,HCC-827,1.03
13,NCI-H2347,1.15
14,LXF-289,0.989
15,NCI-H1666,0.942
16,RERF-LC-KJ,0.885
17,NCI-H322M,0.93

# Same assay, conditions: first compound 0.1 µM
row,Cell Line,relative viability
1,LK-2,1.13
2,NCI-H2405,0.918
3,NCI-H1703,0.291
4,NCI-H1993,0.549
5,NCI-H1355,0.928
6,HCC-366,0.978
7,NCI-H1915,1.12
8,NCI-H838,0.901
9,A-427,0.89
10,EKVX,0.74
11,NCI-H2087,1.01
12,NCI-H1734,0.799
13,LU99A,0.685
14,NCI-H460,1
15,NCI-H2170,0.981
16,HCC-15,0.969
17,NCI-H1944,0.884

row,Cell Line,relative viability
1,EMC-BAC-2,0.887
2,NCI-H1395,0.959
3,LC-2-ad,0.888
4,NCI-H2085,0.895
5,NCI-H727,0.863
6,NCI-H647,1.28
7,HARA,0.835
8,NCI-H3122,1.03
9,CAL-12T,1.14
10,LCLC-97TM1,0.994
11,NCI-H23,0.929
12,HCC-827,0.991
13,NCI-H2347,0.633
14,LXF-289,1.01
15,NCI-H1666,0.922
16,RERF-LC-KJ,0.919
17,NCI-H322M,0.764

# Same assay, conditions: first compound 0.3162 µM
row,Cell Line,relative viability
1,LK-2,0.778
2,NCI-H2405,0.734
3,NCI-H1703,0.429
4,NCI-H1993,0.487
5,NCI-H1355,0.763
6,HCC-366,0.878
7,NCI-H1915,1.03
8,NCI-H838,0.568
9,A-427,0.707
10,EKVX,0.568
11,NCI-H2087,0.863
12,NCI-H1734,0.726
13,LU99A,0.517
14,NCI-H460,0.948
15,NCI-H2170,0.965
16,HCC-15,0.895
17,NCI-H1944,0.73

row,Cell Line,relative viability
1,EMC-BAC-2,0.745
2,NCI-H1395,0.847
3,LC-2-ad,0.765
4,NCI-H2085,1.05
5,NCI-H727,0.812
6,NCI-H647,1.01
7,HARA,0.715
8,NCI-H3122,0.98
9,CAL-12T,1.13
10,LCLC-97TM1,0.584
11,NCI-H23,0.653
12,HCC-827,0.855
13,NCI-H2347,0.494
14,LXF-289,0.903
15,NCI-H1666,0.795
16,RERF-LC-KJ,0.622
17,NCI-H322M,0.654

# Same assay, conditions: first compound 1 µM
row,Cell Line,relative viability
1,LK-2,0.195
2,NCI-H2405,0.537
3,NCI-H1703,0.324
4,NCI-H1993,0.575
5,NCI-H1355,0.33
6,HCC-366,0.748
7,NCI-H1915,0.582
8,NCI-H838,0.416
9,A-427,0.423
10,EKVX,0.581
11,NCI-H2087,0.39
12,NCI-H1734,0.477
13,LU99A,0.302
14,NCI-H460,0.582
15,NCI-H2170,0.667
16,HCC-15,0.58
17,NCI-H1944,0.394

row,Cell Line,relative viability
1,EMC-BAC-2,0.329
2,NCI-H1395,0.637
3,LC-2-ad,0.582
4,NCI-H2085,0.591
5,NCI-H727,0.398
6,NCI-H647,0.575
7,HARA,0.322
8,NCI-H3122,0.45
9,CAL-12T,0.488
10,LCLC-97TM1,0.432
11,NCI-H23,0.464
12,HCC-827,0.411
13,NCI-H2347,0.468
14,LXF-289,0.747
15,NCI-H1666,0.783
16,RERF-LC-KJ,0.445
17,NCI-H322M,0.517
